Drawing on patent US11465984B2, “Compound having ERK kinase inhibitory activity and use thereof” (SHANGHAI HAIHE PHARMACEUTICAL CO., LTD., priority 2017, dated 2022), this text covers IC50 for 1 compound.

Usually IC50 stands for the concentration at which inhibition is half-maximal.

For this test, the target named is ERK2 kinase (Homo sapiens (Human), UniProt P28482). Description: In vitro enzyme activity assay, ERK2 kinase (Z'-LYTE). It counts as biochemical.

Like-named read-outs stand apart in the source and are kept apart here.

Chain of ERK2 kinase (P28482 whole entry): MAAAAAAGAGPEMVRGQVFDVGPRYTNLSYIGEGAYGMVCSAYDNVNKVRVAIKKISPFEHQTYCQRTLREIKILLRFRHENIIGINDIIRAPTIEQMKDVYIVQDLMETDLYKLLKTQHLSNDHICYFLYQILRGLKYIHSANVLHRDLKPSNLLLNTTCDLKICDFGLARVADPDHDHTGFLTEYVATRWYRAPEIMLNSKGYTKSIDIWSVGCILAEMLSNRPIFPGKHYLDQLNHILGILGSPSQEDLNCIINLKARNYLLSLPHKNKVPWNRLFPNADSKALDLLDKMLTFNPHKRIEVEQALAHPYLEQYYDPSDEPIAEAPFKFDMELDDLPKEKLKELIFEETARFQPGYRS

Regarding `Cn1nccc1Nc1cc(-c2cc(F)c3c(c2)CCN3C(=O)Cc2cccnc2Cl)ccn1` [Example P9, 2-(2-chloropyridin-3-yl)-1-(7-fluoro-5-(2-((1-methyl-1H-pyrazol-5-yl)amino)pyridin-4-yl)indolin-1-yl)ethan-1-one], the IC50 was no more than 10 nM (class symbols, read-out: ERK2 IC50) and 3.3 nM (read-out: IC50 against ERK2 kinase).
